{"source": "ChEMBL document CHEMBL4219030", "about": "“Progress in the discovery of small molecule modulators of the Cys-loop superfamily receptors” (Bioorg Med Chem Lett, 2017)", "key": {"[1]": {"target": "T1, 5-hydroxytryptamine receptor 3A (Homo sapiens, UniProt P46098)", "T1 sequence (P46098 whole entry)": "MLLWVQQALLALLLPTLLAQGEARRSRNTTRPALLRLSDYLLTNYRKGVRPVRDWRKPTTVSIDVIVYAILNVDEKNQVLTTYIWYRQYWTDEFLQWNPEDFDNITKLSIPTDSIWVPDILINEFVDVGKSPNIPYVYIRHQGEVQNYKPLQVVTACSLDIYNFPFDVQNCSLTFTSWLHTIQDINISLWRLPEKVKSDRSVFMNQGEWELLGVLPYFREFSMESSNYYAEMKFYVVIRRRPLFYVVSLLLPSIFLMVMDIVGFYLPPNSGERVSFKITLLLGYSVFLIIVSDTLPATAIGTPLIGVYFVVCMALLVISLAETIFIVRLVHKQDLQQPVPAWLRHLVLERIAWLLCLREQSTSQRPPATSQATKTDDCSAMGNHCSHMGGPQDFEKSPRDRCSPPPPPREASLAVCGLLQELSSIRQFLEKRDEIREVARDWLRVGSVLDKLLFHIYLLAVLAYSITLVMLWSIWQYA", "assay": "Inhibition of 5-HT3 receptor (unknown origin)"}, "[2]": {"target": "Gamma-aminobutyric acid receptor subunit alpha-1/beta-2/gamma-2 (Mus musculus, UniProt P22723+P62812+P63137)", "sequence (P22723 whole entry)": "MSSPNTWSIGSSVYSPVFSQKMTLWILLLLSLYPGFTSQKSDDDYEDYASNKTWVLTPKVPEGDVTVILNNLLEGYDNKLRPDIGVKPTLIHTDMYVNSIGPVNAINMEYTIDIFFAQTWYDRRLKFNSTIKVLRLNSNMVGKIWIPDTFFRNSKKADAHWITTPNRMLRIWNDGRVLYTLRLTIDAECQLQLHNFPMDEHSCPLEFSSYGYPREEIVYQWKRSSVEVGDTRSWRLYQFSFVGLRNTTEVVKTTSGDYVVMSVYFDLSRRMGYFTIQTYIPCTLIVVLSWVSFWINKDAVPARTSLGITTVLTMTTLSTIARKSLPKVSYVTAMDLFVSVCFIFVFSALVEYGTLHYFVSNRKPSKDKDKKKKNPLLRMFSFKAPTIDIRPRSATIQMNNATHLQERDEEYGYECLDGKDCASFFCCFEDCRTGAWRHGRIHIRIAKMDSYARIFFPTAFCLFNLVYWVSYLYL", "sequence (P62812 whole entry)": "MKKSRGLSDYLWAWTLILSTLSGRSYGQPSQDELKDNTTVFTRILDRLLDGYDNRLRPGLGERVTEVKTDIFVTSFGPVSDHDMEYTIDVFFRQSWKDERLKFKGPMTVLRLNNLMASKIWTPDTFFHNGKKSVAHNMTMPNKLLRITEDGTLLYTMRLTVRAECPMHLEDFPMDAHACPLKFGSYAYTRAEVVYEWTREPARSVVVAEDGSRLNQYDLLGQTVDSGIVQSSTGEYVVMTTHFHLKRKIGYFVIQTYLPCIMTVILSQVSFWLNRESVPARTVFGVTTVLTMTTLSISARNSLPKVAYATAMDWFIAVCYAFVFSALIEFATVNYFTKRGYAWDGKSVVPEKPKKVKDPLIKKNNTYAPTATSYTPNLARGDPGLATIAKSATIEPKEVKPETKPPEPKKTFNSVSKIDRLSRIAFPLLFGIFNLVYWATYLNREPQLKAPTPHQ", "sequence (P63137 whole entry)": "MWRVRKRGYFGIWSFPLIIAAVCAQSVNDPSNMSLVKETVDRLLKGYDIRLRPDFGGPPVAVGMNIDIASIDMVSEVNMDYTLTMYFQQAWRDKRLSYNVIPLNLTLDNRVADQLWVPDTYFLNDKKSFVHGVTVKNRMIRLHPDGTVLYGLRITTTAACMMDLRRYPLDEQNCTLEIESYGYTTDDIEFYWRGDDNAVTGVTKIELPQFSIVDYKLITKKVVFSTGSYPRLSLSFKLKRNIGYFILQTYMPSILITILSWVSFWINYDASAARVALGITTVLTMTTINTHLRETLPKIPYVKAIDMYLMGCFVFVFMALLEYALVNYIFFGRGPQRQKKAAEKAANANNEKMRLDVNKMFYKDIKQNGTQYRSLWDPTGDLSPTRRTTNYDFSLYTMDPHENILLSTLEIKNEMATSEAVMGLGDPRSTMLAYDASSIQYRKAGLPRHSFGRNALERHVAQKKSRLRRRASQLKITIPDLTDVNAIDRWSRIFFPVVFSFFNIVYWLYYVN", "assay": "Positive allosteric modulation of C57BL/6 mouse GABAA receptor alpha1beta2gamma2 assessed as increase in GABA-induced current response at -60 mV holding potential by whole cell patch-clamp method relative to GABA", "assay_type": "protein-complex assay"}, "[3]": {"target": "T2, Glycine receptor subunit alpha-1 (Homo sapiens, UniProt P23415)", "T2 sequence (P23415 whole entry)": "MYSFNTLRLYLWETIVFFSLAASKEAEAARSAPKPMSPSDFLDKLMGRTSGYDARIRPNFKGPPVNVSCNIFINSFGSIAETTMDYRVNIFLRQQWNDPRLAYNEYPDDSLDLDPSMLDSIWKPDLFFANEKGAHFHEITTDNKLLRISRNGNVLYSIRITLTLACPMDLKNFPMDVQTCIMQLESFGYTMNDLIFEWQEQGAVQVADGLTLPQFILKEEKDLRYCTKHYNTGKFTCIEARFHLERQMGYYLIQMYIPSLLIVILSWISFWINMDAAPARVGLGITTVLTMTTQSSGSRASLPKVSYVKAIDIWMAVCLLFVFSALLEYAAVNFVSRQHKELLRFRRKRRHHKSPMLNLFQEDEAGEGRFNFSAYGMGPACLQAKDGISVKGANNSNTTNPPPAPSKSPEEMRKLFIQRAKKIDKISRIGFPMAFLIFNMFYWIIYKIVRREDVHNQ", "assay": "Positive allosteric modulation of human glycine alpha1 receptor expressed in HEK293T cells assessed as glycine-induced increase incurrent response after 18 to 24 hrs by membrane potential blue dye based FLIPR assay", "assay_type": "cell-based"}, "[4]": {"target": "T3, Glycine receptor alpha-3/beta (Homo sapiens, UniProt O75311+P48167)", "T3 sequence (O75311 whole entry)": "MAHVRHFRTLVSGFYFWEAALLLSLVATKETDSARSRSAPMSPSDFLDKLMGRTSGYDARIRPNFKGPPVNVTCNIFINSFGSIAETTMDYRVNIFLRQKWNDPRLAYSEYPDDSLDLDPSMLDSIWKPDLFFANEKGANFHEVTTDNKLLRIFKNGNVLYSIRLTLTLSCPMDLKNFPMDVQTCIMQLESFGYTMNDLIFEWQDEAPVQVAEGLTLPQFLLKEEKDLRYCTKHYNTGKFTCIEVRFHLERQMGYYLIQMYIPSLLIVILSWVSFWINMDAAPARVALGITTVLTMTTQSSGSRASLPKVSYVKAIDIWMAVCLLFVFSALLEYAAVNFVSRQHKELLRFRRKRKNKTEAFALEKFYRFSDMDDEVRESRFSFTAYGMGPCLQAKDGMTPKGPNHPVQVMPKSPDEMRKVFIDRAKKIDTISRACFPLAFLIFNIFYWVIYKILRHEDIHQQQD", "T3 sequence (P48167 whole entry)": "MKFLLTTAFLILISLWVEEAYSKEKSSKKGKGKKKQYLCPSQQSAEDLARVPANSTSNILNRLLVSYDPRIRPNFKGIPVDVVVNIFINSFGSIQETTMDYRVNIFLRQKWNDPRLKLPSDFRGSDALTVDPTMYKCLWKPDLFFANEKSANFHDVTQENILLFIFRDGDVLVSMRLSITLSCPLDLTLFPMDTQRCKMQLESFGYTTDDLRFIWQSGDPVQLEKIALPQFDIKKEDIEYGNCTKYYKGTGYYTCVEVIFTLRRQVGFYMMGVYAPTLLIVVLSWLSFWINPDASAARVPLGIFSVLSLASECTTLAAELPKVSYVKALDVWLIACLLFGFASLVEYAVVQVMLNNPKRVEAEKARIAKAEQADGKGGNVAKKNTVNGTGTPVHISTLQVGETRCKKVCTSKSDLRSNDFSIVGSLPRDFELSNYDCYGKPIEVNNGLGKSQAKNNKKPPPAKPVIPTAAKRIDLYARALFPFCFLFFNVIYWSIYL", "assay": "Positive allosteric modulation of human glycine alpha3beta receptor expressed in HEK293T cells assessed as glycine-induced increase in current response after 18 to 24 hrs by membrane potential blue dye based FLIPR assay", "assay_type": "cell-based"}, "[5]": {"target": "T4, Neuronal acetylcholine receptor; alpha4/beta2 (Homo sapiens, UniProt P17787+P43681)", "T4 sequence (P17787 whole entry)": "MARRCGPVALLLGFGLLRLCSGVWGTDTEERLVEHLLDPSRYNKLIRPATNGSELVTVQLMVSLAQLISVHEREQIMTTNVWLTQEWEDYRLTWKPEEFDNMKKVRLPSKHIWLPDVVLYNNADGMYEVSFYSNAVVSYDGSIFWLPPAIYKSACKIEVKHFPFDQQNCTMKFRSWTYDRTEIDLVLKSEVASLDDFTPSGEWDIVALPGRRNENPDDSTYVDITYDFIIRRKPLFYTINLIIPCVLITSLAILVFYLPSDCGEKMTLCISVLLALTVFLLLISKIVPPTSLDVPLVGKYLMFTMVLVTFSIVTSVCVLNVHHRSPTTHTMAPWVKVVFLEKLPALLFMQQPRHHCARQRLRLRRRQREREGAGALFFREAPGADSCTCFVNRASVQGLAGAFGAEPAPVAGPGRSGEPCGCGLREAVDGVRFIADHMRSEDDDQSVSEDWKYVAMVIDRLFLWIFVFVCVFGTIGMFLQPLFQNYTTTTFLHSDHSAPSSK", "T4 sequence (P43681 whole entry)": "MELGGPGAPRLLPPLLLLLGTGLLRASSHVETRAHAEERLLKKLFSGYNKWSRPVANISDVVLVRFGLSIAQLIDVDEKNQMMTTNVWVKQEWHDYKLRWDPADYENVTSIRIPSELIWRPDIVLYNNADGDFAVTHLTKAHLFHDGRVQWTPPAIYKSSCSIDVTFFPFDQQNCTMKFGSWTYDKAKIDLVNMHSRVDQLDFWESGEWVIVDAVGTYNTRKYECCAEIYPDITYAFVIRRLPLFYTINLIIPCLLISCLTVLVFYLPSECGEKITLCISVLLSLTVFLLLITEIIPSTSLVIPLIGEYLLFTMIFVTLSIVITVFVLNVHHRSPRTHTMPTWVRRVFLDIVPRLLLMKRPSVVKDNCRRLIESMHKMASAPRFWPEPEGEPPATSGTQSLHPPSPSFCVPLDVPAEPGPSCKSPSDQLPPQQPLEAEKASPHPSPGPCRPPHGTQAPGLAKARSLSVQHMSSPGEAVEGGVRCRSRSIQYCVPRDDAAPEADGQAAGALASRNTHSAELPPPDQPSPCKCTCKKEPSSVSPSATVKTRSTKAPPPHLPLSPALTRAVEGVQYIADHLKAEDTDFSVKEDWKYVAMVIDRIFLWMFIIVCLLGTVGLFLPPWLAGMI", "assay": "Inhibition of alpha4beta2 nAChR (unknown origin)", "assay_type": "protein-complex assay"}, "[6]": {"target": "T5, Gamma-aminobutyric acid receptor subunit alpha-1/beta-3/gamma-2 (Mus musculus, UniProt P22723+P62812+P63080)", "T5 sequence (P22723 whole entry)": "as the sequence (P22723 whole entry) above", "T5 sequence (P62812 whole entry)": "as the sequence (P62812 whole entry) above", "T5 sequence (P63080 whole entry)": "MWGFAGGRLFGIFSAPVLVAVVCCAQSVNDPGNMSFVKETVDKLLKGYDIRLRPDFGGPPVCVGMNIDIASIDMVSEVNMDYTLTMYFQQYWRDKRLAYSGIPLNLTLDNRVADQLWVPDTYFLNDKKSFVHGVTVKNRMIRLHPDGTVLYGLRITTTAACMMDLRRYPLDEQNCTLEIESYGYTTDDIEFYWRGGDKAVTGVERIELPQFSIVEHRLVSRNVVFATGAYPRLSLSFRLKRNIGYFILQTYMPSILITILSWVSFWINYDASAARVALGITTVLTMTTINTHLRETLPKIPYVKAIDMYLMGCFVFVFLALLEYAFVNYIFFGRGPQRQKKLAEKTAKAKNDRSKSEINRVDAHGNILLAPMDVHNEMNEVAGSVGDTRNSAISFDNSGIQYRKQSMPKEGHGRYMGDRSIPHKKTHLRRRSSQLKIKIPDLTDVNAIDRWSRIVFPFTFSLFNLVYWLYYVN", "assay": "Inhibition of C57BL/6 mouse GABAA receptor alpha1beta3gamma2", "assay_type": "protein-complex assay"}, "[7]": {"target": "T1, 5-hydroxytryptamine receptor 3A", "assay": "Agonist activity at 5-HT3 receptor (unknown origin)"}, "[8]": {"target": "Glycine receptor (alpha-1/beta) (Homo sapiens, UniProt P23415+P48167)", "sequence (P48167 whole entry, one chain of several)": "as the sequence (P48167 whole entry) above", "assay": "Positive allosteric modulation of human glycine alpha1beta receptor expressed in HEK293T cells assessed as glycine-induced increase in current response after 18 to 24 hrs by membrane potential blue dye based FLIPR assay", "assay_type": "cell-based"}, "[9]": {"target": "T3, Glycine receptor alpha-3/beta", "assay": "Positive allosteric modulation of human glycine alpha3beta receptor expressed in HEK293T cells assessed as potentiation of glycine-induced increase in current response after 18 to 24 hrs by membrane potential blue dye based FLIPR assay relative to glycine", "assay_type": "cell-based"}, "[10]": {"target": "T4, Neuronal acetylcholine receptor; alpha4/beta2", "assay": "Agonist activity at alpha4beta2 nAChR (unknown origin)", "assay_type": "protein-complex assay"}, "[11]": {"target": "T5, Gamma-aminobutyric acid receptor subunit alpha-1/beta-3/gamma-2", "assay": "Positive allosteric modulation of C57BL/6 mouse GABAA receptor alpha1beta3gamma2 assessed as increase in GABA-induced current response at -60 mV holding potential by whole cell patch-clamp method relative to GABA", "assay_type": "protein-complex assay"}}}
{"smiles": "C[C@H]1[C@H]2C(=O)N(C)c3ccncc3[C@H]2CN1S(=O)(=O)c1ccc2c(c1)OCO2", "values": [{"measurement": "IC50", "setting": "[1]", "value": "> 30", "unit": "µM"}, {"measurement": "EC50", "setting": "[2]", "value": "> 50", "unit": "µM"}, {"measurement": "EC50", "setting": "[3]", "value": 0.032, "unit": "µM"}, {"measurement": "EC50", "setting": "[4]", "value": 0.066, "unit": "µM"}, {"measurement": "IC50", "setting": "[5]", "value": "> 25", "unit": "µM"}, {"measurement": "IC50", "setting": "[6]", "value": "> 30", "unit": "µM"}, {"measurement": "EC50", "setting": "[7]", "value": "> 25", "unit": "µM"}, {"measurement": "EC50", "setting": "[8]", "value": 0.016, "unit": "µM"}, {"measurement": "fold change (FC)", "setting": "[9]", "value": 11}, {"measurement": "EC50", "setting": "[10]", "value": "> 25", "unit": "µM"}, {"measurement": "EC50", "setting": "[11]", "value": "> 30", "unit": "µM"}]}
